Measured values taken from patent US9555018B2, “Synergistic combinations of organic acid useful for controlling microoganisms in industrial processes” (Hercules Incorporated, priority 2013, dated 2017).
Values after ≈ are worked out from the molar mass of the structure shown. Like-named read-outs stand apart in the source and are kept apart here.

Key:
Lactobacillus plantarum = assay: Minimal Inhibitory Concentration (MIC), two-fold dilution series in 96 well microplate, antimicrobial used alone; type: cell-based; conditions: for Propionic Acid MIC (QB) used alone: sodium propionate per text; for MIC: Lactiplantibacillus plantarum
Text: While there are various methods known to individuals skilled in the art for measuring levels of antimicrobial activity, in the following examples the endpoint used is known as the Minimal Inhibitory Concentration, or MIC. This is the lowest concentration of a substance or substances which can achieve complete inhibition of growth.
In order to determine the Minimal Inhibitory Concentration, a two-fold dilution series of the antimicrobial is constructed with the dilutions being made in growth media. The dilutions are made in a 96 well microplate such that each well has a final volume of 280 μl of media and antimicrobial. The first well has, for example, a concentration of 1000 μM antimicrobial, the second 500 μM, the third 250 μM, and so forth, with the 12th and final well in the row having no antimicrobial at all and serving as a positive growth control. After the dilution series is constructed the wells receive an inoculum of microbe suspended in growth media such that the final concentration of microbes in the well is ˜5×10^5 cfu/ml. In these examples the test microbe used is Lactobacillus plantarum. The cultures are incubated at 37° C. for 18-24 hours, and the wells scored as positive or negative for growth based on a visual examination for turbid wells, with turbidity being an indicator of growth.

Weisella confusa = conditions: background statement; cited from earlier work
fermentation = conditions: background statement; cited from earlier work

## CCC(=O)[O-].[Na+] [Sodium Propionate, sodium propionate]
Lactobacillus plantarum; pH 5, Example 2
  Sodium Propionate MIC (QB) used alone: 100000 ppm
Lactobacillus plantarum; pH 5, Example 2, listed as sodium propionate
  Sodium Propionate MIC (QB) used alone: 100,000 ppm
Lactobacillus plantarum; pH 6, Example 1
  Propionic Acid MIC (QB) used alone: 100,000 ppm
Lactobacillus plantarum; pH 6, Example 1, listed as Propionic Acid
  Propionic Acid MIC (QB) used alone: 100000 ppm

## O=C([O-])c1ccccc1.[K+] [Potassium Benzoate, potassium benzoate]
Lactobacillus plantarum; pH 5, Example 4, listed as Potassium benzoate
  Potassium benzoate MIC (QB) used alone: 3125 ppm
Lactobacillus plantarum; pH 5, Example 4, listed as potassium benzoate
  Potassium benzoate MIC (QB) used alone: 3,125 ppm
Lactobacillus plantarum; pH 6, Example 3
  Potassium benzoate MIC (QB) used alone: 100000 ppm
Lactobacillus plantarum; pH 6, Example 3, listed as potassium benzoate
  Potassium benzoate MIC (QB) used alone: 100,000 ppm

## Virginiamycin
Weisella confusa
  concentration required to inhibit growth of Weisella confusa: over 25 mg/L
fermentation
  concentration that will suppress fermentation: over 2 mg/L

## O=C(O)CC(O)(CC(=O)O)C(=O)O [Citric Acid, citric acid]
Lactobacillus plantarum; pH 5, Example 2, read-out: Citric Acid MIC (QA) used alone
  MIC: 25 mg/mL (≈ 130 mM)
Lactobacillus plantarum; pH 5, Example 4, read-out: Citric acid MIC (QA) used alone
  MIC: 25 mg/mL (≈ 130 mM)
Lactobacillus plantarum; pH 6, Example 1, 37° C., 18-24 hours, read-out: Citric Acid MIC (QA) used alone
  MIC: 100 mg/mL (≈ 520 mM)
Lactobacillus plantarum; pH 5, Example 2
  Citric Acid MIC (QA) used alone: 25000 ppm
Lactobacillus plantarum; pH 5, Example 4
  Citric Acid MIC (QA) used alone: 25000 ppm
Lactobacillus plantarum; pH 6, Example 1, 37° C., 18-24 hours
  Citric Acid MIC (QA) used alone: 100000 ppm
Lactobacillus plantarum; pH 6, Example 3
  Citric Acid MIC (QA) used alone: 100000 ppm
Lactobacillus plantarum; pH 6, Example 3, listed as citric acid
  Citric Acid MIC (QA) used alone: 100,000 ppm
